Consider three compounds from patent US20260256738A1, “METHODS OF TREATING CANCER WITH A RAS MUTATION” (Immuneering Corporation, priority 2023, published 2026).

Series [1] has as its system pERK in A549 (KRAS-G12S). In words: Cell-based pERK dose response / phospho-ERK screen in A549. The settings on record: A549 (KRAS G12S), 10 μM for 2 hours. Also noted: species or system Human. As to the method:
Materials and Methods: A549 or A375 cells were seeded in 6-well plates at an appropriate seeding density on day 0. On day 2 or 3, after checking the health and confluency of cells, the media was aspirated and replaced with 1 mL media containing a predetermined concentration of compound and incubated for 2 hours. After 2 hours, the media was aspirated, and the cells washed 2 times with cold PBS. Cells were lysed on ice, with 50 μL 1× CST lysis buffer+1 mM PMSF for 5 minutes. After 5 minutes, cells were removed using a scraper and transferred to cold 1.5 mL tubes, and centrifuged for 10 min, 4° C., 14,000×g. Supernatant was gently removed and snap frozen in liquid nitrogen. Protein concentration of the lysate was determined using Bradford Reagent (analyzed using SpectraMax M2E) and diluted to 1 mg/mL or pERK or 1.5 mg/mL for pMEK analysis. […] All dilutions were in Milk-free antibody diluent.

Series [2] can be described thus: Microsome Stability (% remaining @1 hour). The class given is in vitro ADME. The settings on record: Human; 2 μM.
Series [3] can be described thus: Microsome Stability (% remaining @1 hour). The series is classed as in vitro ADME. As to conditions: Beagle Dog; 2 μM.
Series [4] can be described thus: Microsome Stability (% remaining @1 hour). The class given is in vitro ADME. As to conditions: SD Rat; 2 μM.
The nature of series [5]: Plasma Stability (% remaining @2 hour). The series is classed as in vitro ADME. The settings on record: Human; 2 μM.
Series [6] is described as follows: Plasma Stability (% remaining @2 hour). The series is classed as in vitro ADME. As to conditions: Beagle Dog; 2 μM.
Series [7] is described as follows: Plasma Stability (% remaining @2 hour). The settings on record: SD Rat; 2 μM. The class given is in vitro ADME.
A short description of series [8]: Plasma Stability (% remaining @2 hour). The settings on record: CD-1 Mouse; 2 μM. The class given is in vitro ADME.
For series [9], the target named is T1, CYP450 2B6 (Homo sapiens, UniProt P20813).
T1 sequence (P20813 1-491): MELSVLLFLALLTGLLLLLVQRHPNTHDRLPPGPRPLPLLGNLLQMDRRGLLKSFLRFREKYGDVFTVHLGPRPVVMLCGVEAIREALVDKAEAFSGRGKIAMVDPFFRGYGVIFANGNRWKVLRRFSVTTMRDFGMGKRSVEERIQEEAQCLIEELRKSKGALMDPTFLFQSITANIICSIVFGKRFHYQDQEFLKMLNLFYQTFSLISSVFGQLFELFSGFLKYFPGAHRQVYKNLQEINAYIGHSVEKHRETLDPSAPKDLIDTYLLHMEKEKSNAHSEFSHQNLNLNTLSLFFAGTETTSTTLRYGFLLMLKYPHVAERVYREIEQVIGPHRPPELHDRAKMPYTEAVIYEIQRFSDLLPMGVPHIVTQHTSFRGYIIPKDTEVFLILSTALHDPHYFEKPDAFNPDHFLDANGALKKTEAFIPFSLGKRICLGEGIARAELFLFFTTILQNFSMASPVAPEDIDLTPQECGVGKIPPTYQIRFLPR
The series can be described thus: CYP450 Panel. The series is classed as in vitro ADME. The settings on record: 10 μM; substrate bupropion.

In series [10] the target is T2, CYP450 2C8 (Homo sapiens, UniProt P10632).
T2 sequence (P10632 1-490): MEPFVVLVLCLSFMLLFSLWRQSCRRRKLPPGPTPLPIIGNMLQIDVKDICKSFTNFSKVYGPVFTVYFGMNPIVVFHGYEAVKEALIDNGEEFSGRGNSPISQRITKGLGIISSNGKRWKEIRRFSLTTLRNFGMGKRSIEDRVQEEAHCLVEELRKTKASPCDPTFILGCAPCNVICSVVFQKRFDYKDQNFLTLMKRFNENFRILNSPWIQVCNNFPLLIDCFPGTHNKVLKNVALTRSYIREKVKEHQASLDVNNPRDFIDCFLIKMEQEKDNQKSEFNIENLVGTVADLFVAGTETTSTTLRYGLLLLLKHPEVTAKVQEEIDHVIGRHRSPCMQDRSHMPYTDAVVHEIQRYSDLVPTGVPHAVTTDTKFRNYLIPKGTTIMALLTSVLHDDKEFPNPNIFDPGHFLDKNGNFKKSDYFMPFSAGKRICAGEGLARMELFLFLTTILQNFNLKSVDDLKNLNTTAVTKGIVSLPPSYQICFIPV
In words: CYP450 Panel. The series is classed as in vitro ADME. As to conditions: 10 μM; substrate amodiaquine.

The target in series [11] is CYP450 2C9 (Homo sapiens, UniProt P11712). In words: CYP450 Panel. The series is classed as in vitro ADME. As to conditions: 10 μM; substrate Diclofenac; in % (unit assumed).
CYP450 2C9, sequence (P11712 whole entry): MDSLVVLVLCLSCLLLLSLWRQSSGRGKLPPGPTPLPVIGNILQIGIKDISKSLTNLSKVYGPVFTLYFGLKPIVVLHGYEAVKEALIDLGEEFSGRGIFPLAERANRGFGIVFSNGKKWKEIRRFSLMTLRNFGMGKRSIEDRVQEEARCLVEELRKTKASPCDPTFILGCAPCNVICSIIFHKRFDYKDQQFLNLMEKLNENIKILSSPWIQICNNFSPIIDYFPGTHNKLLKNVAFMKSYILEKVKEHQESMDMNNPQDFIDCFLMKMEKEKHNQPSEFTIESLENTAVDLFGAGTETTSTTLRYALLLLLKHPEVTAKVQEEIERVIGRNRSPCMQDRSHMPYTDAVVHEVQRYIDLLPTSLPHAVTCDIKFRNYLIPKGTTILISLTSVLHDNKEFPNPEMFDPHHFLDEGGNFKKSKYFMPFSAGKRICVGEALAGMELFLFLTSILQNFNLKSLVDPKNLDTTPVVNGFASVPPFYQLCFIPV
For series [12], the target named is CYP450 2C19 (Homo sapiens, UniProt P33261). The series can be described thus: CYP450 Panel. As to conditions: 10 μM; substrate mephenytoin; in % (unit assumed). The series is classed as in vitro ADME.
CYP450 2C19, sequence (P33261 whole entry): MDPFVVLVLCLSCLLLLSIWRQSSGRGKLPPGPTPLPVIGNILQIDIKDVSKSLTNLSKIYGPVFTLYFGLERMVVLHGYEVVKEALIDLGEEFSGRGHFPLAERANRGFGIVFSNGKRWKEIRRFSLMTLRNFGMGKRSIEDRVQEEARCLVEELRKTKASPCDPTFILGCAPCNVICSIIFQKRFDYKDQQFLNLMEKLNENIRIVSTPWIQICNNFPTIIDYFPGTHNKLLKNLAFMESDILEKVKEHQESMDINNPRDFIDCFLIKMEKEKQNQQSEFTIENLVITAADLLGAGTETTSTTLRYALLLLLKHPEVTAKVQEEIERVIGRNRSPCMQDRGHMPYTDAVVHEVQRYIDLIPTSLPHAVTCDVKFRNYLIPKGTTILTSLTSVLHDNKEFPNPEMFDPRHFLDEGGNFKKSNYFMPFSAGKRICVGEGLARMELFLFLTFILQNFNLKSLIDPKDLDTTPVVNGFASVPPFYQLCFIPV
In series [13] the target is CYP450 3A4 (Homo sapiens, UniProt P08684). The series can be described thus: CYP450 Panel. The class given is in vitro ADME. As to conditions: 10 μM.
CYP450 3A4, sequence (P08684 whole entry): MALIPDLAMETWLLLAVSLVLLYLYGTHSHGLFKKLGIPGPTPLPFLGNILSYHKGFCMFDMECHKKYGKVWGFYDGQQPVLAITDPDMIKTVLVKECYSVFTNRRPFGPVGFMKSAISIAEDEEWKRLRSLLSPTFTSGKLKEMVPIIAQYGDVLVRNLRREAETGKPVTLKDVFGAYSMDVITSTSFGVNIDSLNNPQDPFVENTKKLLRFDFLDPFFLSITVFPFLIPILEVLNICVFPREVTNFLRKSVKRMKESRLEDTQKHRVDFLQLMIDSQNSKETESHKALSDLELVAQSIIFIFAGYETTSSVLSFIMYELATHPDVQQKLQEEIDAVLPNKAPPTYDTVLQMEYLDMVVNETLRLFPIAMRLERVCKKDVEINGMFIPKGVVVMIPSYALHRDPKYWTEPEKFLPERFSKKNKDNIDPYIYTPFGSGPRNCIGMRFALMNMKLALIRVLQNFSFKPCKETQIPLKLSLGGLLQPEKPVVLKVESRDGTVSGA
In series [14] the target is hERG Channel (Homo sapiens, UniProt Q12809). In words: biochemical.
hERG Channel, sequence (Q12809 whole entry): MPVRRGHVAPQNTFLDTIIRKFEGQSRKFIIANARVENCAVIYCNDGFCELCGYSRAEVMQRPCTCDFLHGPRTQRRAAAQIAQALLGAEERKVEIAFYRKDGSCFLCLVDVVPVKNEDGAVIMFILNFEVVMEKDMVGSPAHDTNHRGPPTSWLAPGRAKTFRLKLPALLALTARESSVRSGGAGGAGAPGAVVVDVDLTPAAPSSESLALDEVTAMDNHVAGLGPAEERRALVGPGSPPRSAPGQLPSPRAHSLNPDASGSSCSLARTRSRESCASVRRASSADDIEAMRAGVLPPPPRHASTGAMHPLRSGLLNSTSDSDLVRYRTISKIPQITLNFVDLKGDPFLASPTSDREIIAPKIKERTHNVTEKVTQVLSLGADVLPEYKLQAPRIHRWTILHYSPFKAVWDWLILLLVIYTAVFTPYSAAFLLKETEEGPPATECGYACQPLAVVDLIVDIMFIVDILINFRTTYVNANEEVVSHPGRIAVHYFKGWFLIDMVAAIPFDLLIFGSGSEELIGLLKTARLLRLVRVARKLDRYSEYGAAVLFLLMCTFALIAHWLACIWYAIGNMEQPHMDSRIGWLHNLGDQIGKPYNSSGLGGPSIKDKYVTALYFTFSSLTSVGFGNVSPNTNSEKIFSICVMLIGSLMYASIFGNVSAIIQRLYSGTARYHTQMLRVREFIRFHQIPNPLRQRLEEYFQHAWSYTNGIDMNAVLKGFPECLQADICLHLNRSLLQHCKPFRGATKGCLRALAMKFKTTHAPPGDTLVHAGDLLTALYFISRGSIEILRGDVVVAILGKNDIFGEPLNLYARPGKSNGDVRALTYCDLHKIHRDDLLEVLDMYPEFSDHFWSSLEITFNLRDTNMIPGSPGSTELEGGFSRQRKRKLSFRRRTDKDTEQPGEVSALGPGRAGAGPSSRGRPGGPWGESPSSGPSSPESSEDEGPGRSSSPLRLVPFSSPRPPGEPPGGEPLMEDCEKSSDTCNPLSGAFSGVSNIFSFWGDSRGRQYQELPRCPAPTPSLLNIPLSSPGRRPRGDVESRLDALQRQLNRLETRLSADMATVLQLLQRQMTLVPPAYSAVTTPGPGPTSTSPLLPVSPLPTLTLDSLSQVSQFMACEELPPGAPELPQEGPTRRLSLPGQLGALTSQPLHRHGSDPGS
For series [15], the target named is T3, CYP450 1A2 (Homo sapiens, UniProt P05177).
T3 sequence (P05177 1-516): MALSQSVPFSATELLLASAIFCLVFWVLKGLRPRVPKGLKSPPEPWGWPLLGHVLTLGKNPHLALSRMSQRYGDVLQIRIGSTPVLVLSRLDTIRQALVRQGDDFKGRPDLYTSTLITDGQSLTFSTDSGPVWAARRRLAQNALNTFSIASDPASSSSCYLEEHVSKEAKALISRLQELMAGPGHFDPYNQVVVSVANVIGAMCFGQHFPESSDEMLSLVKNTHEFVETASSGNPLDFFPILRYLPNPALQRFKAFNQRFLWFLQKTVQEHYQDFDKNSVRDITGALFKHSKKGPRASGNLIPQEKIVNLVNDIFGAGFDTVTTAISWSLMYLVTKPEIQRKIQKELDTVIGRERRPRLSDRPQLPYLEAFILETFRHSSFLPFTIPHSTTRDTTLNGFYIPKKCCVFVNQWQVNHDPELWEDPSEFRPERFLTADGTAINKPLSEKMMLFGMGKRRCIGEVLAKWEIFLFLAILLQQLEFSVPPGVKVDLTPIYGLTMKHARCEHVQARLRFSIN
The series can be described thus: CYP450 Panel. As to conditions: 10 μM; substrate phenacetin; in % (unit assumed).

The target of series [16] is T4, CYP450 2D6 (Homo sapiens, UniProt P10635). In words: CYP450 Panel. As to conditions: 10 μM; substrate dextromethorphan; in % (unit assumed).
T4 sequence (P10635 whole entry): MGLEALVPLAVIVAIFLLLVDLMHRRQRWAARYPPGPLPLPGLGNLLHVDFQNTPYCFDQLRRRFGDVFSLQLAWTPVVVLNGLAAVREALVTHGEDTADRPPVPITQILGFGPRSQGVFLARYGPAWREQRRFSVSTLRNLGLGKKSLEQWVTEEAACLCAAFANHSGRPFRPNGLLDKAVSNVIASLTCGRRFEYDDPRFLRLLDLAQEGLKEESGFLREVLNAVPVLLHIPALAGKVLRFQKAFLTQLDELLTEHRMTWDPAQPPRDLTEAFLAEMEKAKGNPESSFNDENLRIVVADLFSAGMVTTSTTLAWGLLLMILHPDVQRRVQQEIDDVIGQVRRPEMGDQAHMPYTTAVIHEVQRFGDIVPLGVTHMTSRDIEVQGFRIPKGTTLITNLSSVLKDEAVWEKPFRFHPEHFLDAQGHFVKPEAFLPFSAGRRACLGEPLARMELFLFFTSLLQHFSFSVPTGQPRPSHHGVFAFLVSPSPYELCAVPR
A short description of series [17]: Caco-2 permeability. As to conditions: human. In general terms: Passage across Caco-2 layers is used to estimate intestinal permeability.
The test system of series [18] is Caco-2. In words: Caco-2 permeability. The settings on record: 10 μM, 2 hrs.
Series [19] in a line: Microsome Stability (% remaining @1 hour). The settings on record: CD-1 Mouse; 2 μM.
Series [20] deals with Caco-2.
Series [21] deals with T4, CYP450 2D6.

Where two headings read alike, the source gives them in different places.

A word on the IC50: it is the concentration that inhibits the measured activity by half. As usually defined, the Papp A→B is the apparent permeability from the apical to the basolateral side of a cell layer. A low value points to slow passage. A word on the Papp B→A: it is how fast a substance crosses the layer from the basolateral side. A word on the efflux ratio: it is the permeability from basolateral to apical divided by that in the opposite direction, in the common usage. Turning to `CNS(=O)(=O)Nc1cccc(Cc2c(C)c3ccc(OC(=O)N(C)C)cc3oc2=O)c1F` [Reference 7], the entries for the “pERK: total ERK (% relative to vehicle)” value in [1] (Table 8A) and in [1] (Table 8B) were 0.53% and 3.33%, respectively. Besides, the “Microsome stability, % Remaining @1 hour” value in series [2] stood at 61.1%; in series [3] it was 57.0%; in [4], 2.7%; in series [19], 29.6%. The “Plasma stability, % Remaining @2 hour” value is recorded as 88.1% in series [5], 99.8% in series [6], 77.3% in series [7] and 56.5% in series [8]. Further, the CYP450 Panel 2B6 in [9] was 28.5%. Also, the CYP450 Panel 2C8 in series [10] is 14.4%. In addition, the “CYP450 Panel 2C9” value in series [11] was determined as 33.8. Further, in series [12], the “CYP450 Panel 2C19” value worked out at 11.6. The CYP450 Panel 3A4 (midazolam) in series [13] (substrate midazolam) came out at 29.9%. This compound also showed a CYP450 Panel 3A4 (testosterone) in series [13] (substrate testosterone) of 59.7%. For the same compound, it took 28.6 µM to reach half-maximal inhibition in series [14] (IC50). Also, in [15], the “CYP450 Panel 1A2” value is listed as 0.3. Further, the “CYP450 Panel 2D6” value in [16] is −7.4. The apparent permeability from apical to basolateral (Papp A→B) at 2 h, 10 μM in [17] came to 14.4 ×10⁻⁶ cm/s. The compound also showed a basolateral-to-apical permeability (Papp B→A) at 2 h, 10 μM in series [17] of 10 ×10⁻⁶ cm/s. Moreover, the efflux ratio at 2 h, 10 μM in series [17] was 0.695. In addition, the “A − B Permeability Ranking” value in [18] was “High”.
For the compound `CC(=O)CC(c1ccccc1)c1c(O)c2ccccc2oc1=O` (stereo not shown) [Warfarin], in series [20], the “A − B Permeability Ranking” value is recorded as “High”.
Take `C=C[C@H]1C[N@@]2CC[C@H]1C[C@@H]2[C@@H](O)c1ccnc2ccc(OC)cc12` [Quinidine]: the “CYP450 Panel 2D6” value in [21] amounted to 99.7.
